Broadly, the IC50 is the concentration at which inhibition is half-maximal.

Format in all cases: biochemical
One test addresses T1, PI3Kα (p110α/p85α)(h) (Homo sapiens, UniProt P42336).
T1 construct: purchased Upstate (Millipore Co) #14-602
Briefly: PI3K-HTRF in vitro enzyme assay, PI3Kα. As to conditions: enzyme 0.1 μg/ml. How it is done: (§1) The compounds of the present invention were tested for the activity of phosphatidylinositol 3-kinase delta (PI3K) by using a PI3K enzyme-homogeneous time resolved fluorescence (PI3K-HTRF) kit, which is available under Upstate™ kit (Millipore Co, Billerica, Mass., USA). This kit system measures indirectly the amount of PIP3 produced via PI3K by detecting competitive inhibition of fluorescence complex formation.
(§2) There were used three kinds of buffer solutions, i.e., reaction buffer, stop solution, and detection solution. The reaction buffer was prepared by diluting Reaction Buffer (provided in Update™ kit) with distilled water 4 times and adding DTT to a concentration of 5 mM. The stop solution was prepared by combining STOP A and B Solutions (provided in Update™ kit) in a ratio of 3:1. The detection solution was prepared by combining Detection Solution A, B and C (provided in Update™ kit) in a ratio of 1:1:18. A substrate solution and an ATP solution were prepared by diluting the 1 mM PIP2 (phosphatidyl inositol 4,5 bi-phosphate) stock solution (provided in Update™ kit) and 10 mM ATP (Sigma-aldrich Co., St. Louis, Mo., USA) stock solution with the reaction buffer to concentrations of 20 μM and 40 μM, respectively. An enzyme solution was prepared by diluting PI3Kδ (#14˜604; Upstate™ kit) with the substrate solution to the concentration of 0.2 μg/ml (final reaction concentration: 0.1 μg/ml).
(§3) The test groups were prepared by dissolving each compound in 100% DMSO at 40× the final concentration and then diluting 10-fold with the reaction buffer. 5 μl of each diluted test group solution was transferred to a 384 well low flange white flat bottom microplate (#3572, Corning Life Sciences, Lowell, Mass., USA). We performed centrifuge (1 minute, 1000 rpm) and shaking for 2 minutes after every solution-adding step in this experiment. Next, 10 μl of the enzyme solution was added to each well. A mixed solution of the substrate solution (10 μl) plus 5 μl of the 100% DMSO diluted solution without test compound (i.e., 10% DMSO solution) was used as a negative control. And also, a mixed solution of enzyme solution (10 μl) plus 5 μl of the 100% DMSO diluted solution without test compound (i.e., 10% DMSO solution) was used as a positive control. This plate was pre-incubated for 10 minutes in a 25° C. incubator. After the pre-incubation, the phosphorylation reaction was induced by adding 5 μl of the ATP solution and the plate was incubated for 30 minutes in a 25° C. incubator. This enzyme reaction was stopped by 5 μl of the stop solution and then 5 μl of the detection solution was added thereto. To obtain enough fluorescence responses, the plate was incubated for 2 hours in a 25° C. incubator protected from light.
(§4) The time-resolved fluorescence resonance energy transfer (TR-FRET) rate was measured (emission wavelength: 665 nm, 620 nm, excitation wavelength: 313 nm) by using a Flexstation3 Micro plate reader (Molecular Devices, USA). TR-FRET Rate was calculated based on the Equation 1 and using these TR-FRET Rates, % inhibition rate of each compound was calculated based on the Equation 2. The IC50 values, i.e., the concentration of a test compound that inhibits 50% of PI3Kδ activity in vitro, are generated by Softmax program (Molecular Devices, USA). TR-FRET Rate=(Signal at 665 nm emission wavelength/Signal at 620 nm emission wavelength)×10000 <Equation 1> % Inhibition Rate=[(TR-FRET Rate of the test group−TR-FRET Rate of the positive control group)/(TR-FRET Rate of the negative control group−TR-FRET Rate of the positive control group)]×100 <Equation 2>
(§5) The compounds of the present invention were assayed for the activities of PI3K subtypes, i.e., PI3Kα, PI3Kβ and PI3Kγ, using the same procedures as in Experimental Example 1. […]
A general note: Time-resolved FRET reads energy transfer from a long-lived donor to a nearby acceptor.

For a further test, the target named is T2, PI3Kγ (p120γ)(h) (Homo sapiens, UniProt P48736).
T2 construct: purchased Upstate (Millipore Co) #14-558
T2 sequence (P48736 whole entry): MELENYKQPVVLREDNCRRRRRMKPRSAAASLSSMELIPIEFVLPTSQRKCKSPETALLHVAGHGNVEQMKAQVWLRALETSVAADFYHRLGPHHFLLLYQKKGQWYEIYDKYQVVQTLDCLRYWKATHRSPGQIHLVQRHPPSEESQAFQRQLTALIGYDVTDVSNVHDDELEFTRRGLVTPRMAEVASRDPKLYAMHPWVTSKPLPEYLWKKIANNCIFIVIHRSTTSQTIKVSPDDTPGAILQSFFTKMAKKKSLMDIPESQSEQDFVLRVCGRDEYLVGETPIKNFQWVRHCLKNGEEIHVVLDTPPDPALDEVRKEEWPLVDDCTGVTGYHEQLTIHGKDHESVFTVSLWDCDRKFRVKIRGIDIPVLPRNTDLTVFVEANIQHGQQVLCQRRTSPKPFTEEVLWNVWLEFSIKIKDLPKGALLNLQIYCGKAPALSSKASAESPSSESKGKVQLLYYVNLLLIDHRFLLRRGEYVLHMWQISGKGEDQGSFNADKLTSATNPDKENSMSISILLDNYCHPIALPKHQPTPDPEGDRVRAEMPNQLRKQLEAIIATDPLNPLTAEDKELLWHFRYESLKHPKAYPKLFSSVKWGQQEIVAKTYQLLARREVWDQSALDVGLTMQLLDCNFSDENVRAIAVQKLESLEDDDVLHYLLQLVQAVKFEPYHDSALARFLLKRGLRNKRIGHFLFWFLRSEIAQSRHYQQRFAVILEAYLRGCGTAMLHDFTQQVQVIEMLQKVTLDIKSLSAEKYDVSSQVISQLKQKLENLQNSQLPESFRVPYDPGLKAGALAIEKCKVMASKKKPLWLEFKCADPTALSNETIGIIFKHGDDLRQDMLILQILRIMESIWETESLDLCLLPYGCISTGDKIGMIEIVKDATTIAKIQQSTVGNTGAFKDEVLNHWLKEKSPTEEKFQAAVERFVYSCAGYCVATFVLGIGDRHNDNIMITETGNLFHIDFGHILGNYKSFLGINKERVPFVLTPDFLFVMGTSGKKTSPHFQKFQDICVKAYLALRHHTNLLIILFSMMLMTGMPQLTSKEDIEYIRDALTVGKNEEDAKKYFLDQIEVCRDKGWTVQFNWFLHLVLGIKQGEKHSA
Briefly: PI3K-HTRF in vitro enzyme assay, PI3Kγ. As to conditions: enzyme 0.4 μg/ml. How it is done:
as §1, §2, §3, §4, §5

The next test has as its target T3, PI3Kδ (p110δ/p85α)(h) (Homo sapiens, UniProt O00329).
T3 construct: purchased Upstate (Millipore Co, Billerica, Mass., USA) #14˜604
Briefly: PI3K-HTRF in vitro enzyme assay, PI3Kδ. As to conditions: enzyme 0.1 μg/ml. How it is done: as §1, §2, §3, §4

T3 sequence (O00329 whole entry): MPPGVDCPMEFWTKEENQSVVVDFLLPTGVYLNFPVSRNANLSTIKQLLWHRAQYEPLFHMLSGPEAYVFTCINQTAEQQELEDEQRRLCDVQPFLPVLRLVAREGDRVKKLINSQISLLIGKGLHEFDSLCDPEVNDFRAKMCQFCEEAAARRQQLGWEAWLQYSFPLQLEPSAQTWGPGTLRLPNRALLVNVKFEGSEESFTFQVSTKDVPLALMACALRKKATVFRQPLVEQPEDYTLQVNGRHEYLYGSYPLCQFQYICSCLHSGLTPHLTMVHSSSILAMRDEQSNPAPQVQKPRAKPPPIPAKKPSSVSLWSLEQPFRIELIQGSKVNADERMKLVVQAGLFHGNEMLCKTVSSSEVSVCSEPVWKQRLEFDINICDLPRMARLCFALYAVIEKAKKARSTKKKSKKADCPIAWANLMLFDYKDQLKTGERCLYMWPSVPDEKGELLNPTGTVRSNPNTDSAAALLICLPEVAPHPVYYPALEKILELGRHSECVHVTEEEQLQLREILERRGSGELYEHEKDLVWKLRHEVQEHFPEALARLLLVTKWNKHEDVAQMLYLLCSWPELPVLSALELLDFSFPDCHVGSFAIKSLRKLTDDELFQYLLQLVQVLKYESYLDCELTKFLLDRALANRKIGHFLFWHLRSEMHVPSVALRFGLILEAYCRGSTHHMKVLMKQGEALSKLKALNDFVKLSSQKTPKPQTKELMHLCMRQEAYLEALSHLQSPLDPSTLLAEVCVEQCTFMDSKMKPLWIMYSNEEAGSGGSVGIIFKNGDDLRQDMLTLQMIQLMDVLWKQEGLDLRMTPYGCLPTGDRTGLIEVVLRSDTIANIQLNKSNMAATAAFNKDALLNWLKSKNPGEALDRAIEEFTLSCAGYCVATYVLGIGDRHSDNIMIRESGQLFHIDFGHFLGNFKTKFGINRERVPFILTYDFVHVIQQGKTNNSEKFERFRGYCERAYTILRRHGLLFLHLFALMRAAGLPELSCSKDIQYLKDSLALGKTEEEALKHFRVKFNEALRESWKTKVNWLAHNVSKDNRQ
T3 sequence (P27986 whole entry partner): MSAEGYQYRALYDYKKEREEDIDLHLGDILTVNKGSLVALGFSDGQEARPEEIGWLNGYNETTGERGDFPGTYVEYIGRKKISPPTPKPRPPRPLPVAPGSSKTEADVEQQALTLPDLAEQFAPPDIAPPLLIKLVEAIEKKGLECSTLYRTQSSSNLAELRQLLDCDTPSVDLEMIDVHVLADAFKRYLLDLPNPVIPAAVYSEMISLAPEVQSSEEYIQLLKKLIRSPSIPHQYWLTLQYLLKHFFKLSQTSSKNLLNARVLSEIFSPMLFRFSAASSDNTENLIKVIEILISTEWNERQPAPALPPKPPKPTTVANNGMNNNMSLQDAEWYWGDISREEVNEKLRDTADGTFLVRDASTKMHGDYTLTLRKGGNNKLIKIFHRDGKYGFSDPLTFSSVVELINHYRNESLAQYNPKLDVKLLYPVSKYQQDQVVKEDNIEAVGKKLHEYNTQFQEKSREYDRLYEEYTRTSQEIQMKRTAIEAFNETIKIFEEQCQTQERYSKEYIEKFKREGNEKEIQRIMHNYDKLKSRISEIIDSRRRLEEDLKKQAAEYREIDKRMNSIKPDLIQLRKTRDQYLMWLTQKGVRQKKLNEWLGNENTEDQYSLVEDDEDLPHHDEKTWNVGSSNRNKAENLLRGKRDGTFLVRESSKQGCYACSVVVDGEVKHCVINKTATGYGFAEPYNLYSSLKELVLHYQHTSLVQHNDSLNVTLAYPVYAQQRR
T1 sequence (P42336 whole entry): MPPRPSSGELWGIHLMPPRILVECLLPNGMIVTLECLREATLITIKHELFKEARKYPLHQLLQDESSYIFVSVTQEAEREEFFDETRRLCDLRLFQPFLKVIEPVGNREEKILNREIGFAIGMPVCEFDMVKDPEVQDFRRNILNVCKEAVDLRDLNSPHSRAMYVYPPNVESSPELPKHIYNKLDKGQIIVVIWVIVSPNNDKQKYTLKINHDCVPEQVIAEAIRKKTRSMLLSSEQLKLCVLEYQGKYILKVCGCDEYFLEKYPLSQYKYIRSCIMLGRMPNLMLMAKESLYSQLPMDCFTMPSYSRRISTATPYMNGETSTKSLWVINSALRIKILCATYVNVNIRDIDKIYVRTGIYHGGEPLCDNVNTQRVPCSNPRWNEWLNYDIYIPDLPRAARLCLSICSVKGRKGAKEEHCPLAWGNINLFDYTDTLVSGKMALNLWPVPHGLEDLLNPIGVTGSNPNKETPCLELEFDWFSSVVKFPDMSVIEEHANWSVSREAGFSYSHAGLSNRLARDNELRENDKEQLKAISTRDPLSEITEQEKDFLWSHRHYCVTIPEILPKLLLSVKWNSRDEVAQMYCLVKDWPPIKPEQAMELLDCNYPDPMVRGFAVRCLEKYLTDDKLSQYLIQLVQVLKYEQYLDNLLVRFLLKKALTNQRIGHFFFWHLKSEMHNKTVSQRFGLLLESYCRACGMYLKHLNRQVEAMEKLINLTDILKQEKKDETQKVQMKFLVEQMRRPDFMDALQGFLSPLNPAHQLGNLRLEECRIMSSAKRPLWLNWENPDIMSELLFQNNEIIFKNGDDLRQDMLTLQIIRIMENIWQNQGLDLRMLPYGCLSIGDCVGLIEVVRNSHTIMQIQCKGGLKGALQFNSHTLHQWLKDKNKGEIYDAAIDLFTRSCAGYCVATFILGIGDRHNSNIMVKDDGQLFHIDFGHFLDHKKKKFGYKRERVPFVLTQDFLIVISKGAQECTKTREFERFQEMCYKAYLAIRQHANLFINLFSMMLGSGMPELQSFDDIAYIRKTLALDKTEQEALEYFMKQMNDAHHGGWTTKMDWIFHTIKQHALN
T1 sequence (P27986 whole entry partner): as the sequence (P27986 whole entry partner) above

As to `C[C@H](Nc1ncnc2ccc(C#N)cc12)c1nc2cccc(-c3cncnc3)c2c(=O)n1-c1ccccc1` [Example 1, (S)-4-((1-(4-oxo-3-phenyl-5-(pyrimidin-5-yl)-3,4-dihydroquinazolin-2-yl)ethyl)amino)quinazoline-6-carbonitrile], the 50% inhibitory concentration (IC50) at PI3Kα (p110α/p85α)(h) was determined as 3550 nM; against PI3Kγ (p120γ)(h) it was 922 nM; against PI3Kδ (p110δ/p85α)(h) it was 20 nM.

Take `Cc1ncc(-c2cccc3nc([C@H](C)Nc4ncnc5ccc(C#N)cc45)n(-c4ccccc4)c(=O)c23)cn1` [Example 3, (S)-4-((1-(5-(2-methylpyrimidin-5-yl)-4-oxo-3-phenyl-3,4-dihydroquinazolin-2-yl)ethyl)amino)quinazoline-6-carbonitrile]: the IC50 was 1770 nM at PI3Kα (p110α/p85α)(h), 262 nM on PI3Kγ (p120γ)(h) and 22 nM at PI3Kδ (p110δ/p85α)(h).

As for `CC[C@H](Nc1ncnc2ccc(C#N)cc12)c1nc2cccc(-c3cncnc3)c2c(=O)n1-c1ccccc1` [Example 4, (S)-4-((1-(4-oxo-3-phenyl-5-(pyrimidin-5-yl)-3,4-dihydroquinazolin-2-yl)propyl)amino)quinazoline-6-carbonitrile], the results for the IC50 on PI3Kα (p110α/p85α)(h), on PI3Kγ (p120γ)(h) and against PI3Kδ (p110δ/p85α)(h) were 2210 nM, 3630 nM and 14 nM, respectively.

As to `CC[C@H](Nc1ncnc2ccc(C#N)cc12)c1nc2cccc(-c3cnc(OC)nc3)c2c(=O)n1-c1ccccc1` [Example 5, (S)-4-((1-(5-(2-methoxypyrimidin-5-yl)-4-oxo-3-phenyl-3,4-dihydroquinazolin-2-yl)propyl)amino)quinazoline-6-carbonitrile], the IC50 worked out at 1010 nM on PI3Kα (p110α/p85α)(h), 2150 nM against PI3Kγ (p120γ)(h) and 14 nM against PI3Kδ (p110δ/p85α)(h).

Take `CCOc1ncc(-c2cccc3nc([C@H](CC)Nc4ncnc5ccc(C#N)cc45)n(-c4ccccc4)c(=O)c23)cn1` [Example 6, (S)-4-((1-(5-(2-ethoxypyrimidin-5-yl)-4-oxo-3-phenyl-3,4-dihydroquinazolin-2-yl)propyl)amino)quinazoline-6-carbonitrile]: the 50% inhibitory concentration (IC50) was found to be 1510 nM on PI3Kα (p110α/p85α)(h), 1960 nM on PI3Kγ (p120γ)(h) and 15 nM against PI3Kδ (p110δ/p85α)(h).

For the compound `CC[C@H](Nc1ncnc2ccc(C#N)cc12)c1nc2cccc(-c3cnc(N(C)C)nc3)c2c(=O)n1-c1ccccc1` [Example 7, (S)-4-((1-(5-(2-(dimethylamino)pyrimidin-5-yl)-4-oxo-3-phenyl-3,4-dihydroquinazolin-2-yl)propyl)amino)quinazoline-6-carbonitrile], the IC50 against PI3Kα (p110α/p85α)(h) was 638 nM; against PI3Kγ (p120γ)(h), 747 nM; at PI3Kδ (p110δ/p85α)(h) it was 20 nM.

Turning to `CC[C@H](Nc1ncnc2ccc(C#N)cc12)c1nc2cccc(-c3cnc(SC)nc3)c2c(=O)n1-c1ccccc1` [Example 8, (S)-4-((1-(5-(2-(methylsulfanyl)pyrimidin-5-yl)-4-oxo-3-phenyl-3,4-dihydroquinazolin-2-yl)propyl)amino)quinazoline-6-carbonitrile], the values for the IC50 at PI3Kα (p110α/p85α)(h), on PI3Kγ (p120γ)(h) and against PI3Kδ (p110δ/p85α)(h) were 787 nM, 1720 nM and 18 nM, respectively.

On to `CCC[C@H](Nc1ncnc2ccc(C#N)cc12)c1nc2cccc(-c3cnc(C)nc3)c2c(=O)n1-c1ccccc1` [Example 9, (S)-4-((1-(5-(2-methylpyrimidin-5-yl)-4-oxo-3-phenyl-3,4-dihydroquinazolin-2-yl)butyl)amino)quinazoline-6-carbonitrile], for which the figures for the IC50 on PI3Kα (p110α/p85α)(h), at PI3Kγ (p120γ)(h) and against PI3Kδ (p110δ/p85α)(h) were 2850 nM, 1150 nM and 18 nM, respectively.

On to `CC(C)[C@H](Nc1ncnc2ccc(C#N)cc12)c1nc2cccc(-c3cnc(N)nc3)c2c(=O)n1-c1ccccc1` [Example 13, (S)-4-((1-(5-(2-aminopyrimidin-5-yl)-4-oxo-3-phenyl-3,4-dihydroquinazolin-2-yl)-2-methylpropyl)amino)quinazoline-6-carbonitrile], for which the IC50 on PI3Kα (p110α/p85α)(h) turned out to be 1480 nM; at PI3Kγ (p120γ)(h), 2890 nM; against PI3Kδ (p110δ/p85α)(h), 24 nM.

In the case of `N#Cc1ccc2ncnc(N[C@H](c3nc4cccc(-c5cncnc5)c4c(=O)n3-c3ccccc3)C3CC3)c2c1` [Example 14, (S)-4-((cyclopropyl(4-oxo-3-phenyl-5-(pyrimidin-5-yl)-3,4-dihydroquinazolin-2-yl)methyl)amino)quinazoline-6-carbonitrile], the IC50 at PI3Kα (p110α/p85α)(h) worked out at 841 nM; against PI3Kγ (p120γ)(h) it was 537 nM; against PI3Kδ (p110δ/p85α)(h) it was 3 nM.

Take `COc1ncc(-c2cccc3nc([C@@H](Nc4ncnc5ccc(C#N)cc45)C4CC4)n(-c4ccccc4)c(=O)c23)cn1` [Example 15, (S)-4-((cyclopropyl(5-(2-methoxypyrimidin-5-yl)-4-oxo-3-phenyl-3,4-dihydroquinazolin-2-yl)methyl)amino)quinazoline-6-carbonitrile]: the IC50 against PI3Kα (p110α/p85α)(h) was 751 nM; at PI3Kγ (p120γ)(h), 364 nM; against PI3Kδ (p110δ/p85α)(h) it was 17 nM.

As for `CCOc1ncc(-c2cccc3nc([C@@H](Nc4ncnc5ccc(C#N)cc45)C4CC4)n(-c4ccccc4)c(=O)c23)cn1` [Example 16, (S)-4-((cyclopropyl(5-(2-ethoxypyrimidin-5-yl)-4-oxo-3-phenyl-3,4-dihydroquinazolin-2-yl)methyl)amino)quinazoline-6-carbonitrile], the IC50 is 1290 nM against PI3Kα (p110α/p85α)(h), 434 nM against PI3Kγ (p120γ)(h) and 4 nM at PI3Kδ (p110δ/p85α)(h).

On to `C[C@H](Nc1ncnc2cccc(F)c12)c1nc2cccc(-c3cncnc3)c2c(=O)n1-c1ccccc1` [Example 22, (S)-2-(1-((5-fluoroquinazolin-4-yl)amino)ethyl)-3-phenyl-5-(pyrimidin-5-yl)quinazolin-4(3H)-one], for which the IC50 against PI3Kγ (p120γ)(h) was found to be 5940 nM; against PI3Kδ (p110δ/p85α)(h), 30 nM.

Consider `C[C@H](Nc1ncnc2cccc(F)c12)c1nc2cccc(-c3cnc(N)nc3)c2c(=O)n1-c1ccccc1` [Example 23, (S)-5-(2-aminopyrimidin-5-yl)-2-(1-((5-fluoroquinazolin-4-yl)amino)ethyl)-3-phenylquinazolin-4(3H)-one], for which the figures for the IC50 against PI3Kα (p110α/p85α)(h), at PI3Kγ (p120γ)(h) and against PI3Kδ (p110δ/p85α)(h) were 2730 nM, 1390 nM and 19 nM, respectively.

Turning to `CC[C@H](Nc1ncnc2cccc(F)c12)c1nc2cccc(-c3cncnc3)c2c(=O)n1-c1ccccc1` [Example 24, (S)-2-(1-((5-fluoroquinazolin-4-yl)amino)propyl)-3-phenyl-5-(pyrimidin-5-yl)quinazolin-4(3H)-one], the IC50 against PI3Kα (p110α/p85α)(h) was found to be 8120 nM; against PI3Kγ (p120γ)(h), 4280 nM; against PI3Kδ (p110δ/p85α)(h), 17 nM.

`CC(C)[C@H](Nc1ncnc2cccc(F)c12)c1nc2cccc(-c3cncnc3)c2c(=O)n1-c1ccccc1` [Example 28, (S)-2-(1-((5-fluoroquinazolin-4-yl)amino)-2-methylpropyl)-3-phenyl-5-(pyrimidin-5-yl)quinazolin-4(3H)-one]: on PI3Kδ (p110δ/p85α)(h), 19 nM corresponded to half-maximal inhibition (IC50).

Regarding `CC(C)[C@H](Nc1ncnc2cccc(F)c12)c1cc2cccc(-c3cncnc3)c2c(=O)n1-c1ccccc1` [Example 45, (S)-3-(1-((5-fluoroquinazolin-4-yl)amino)-2-methylpropyl)-2-phenyl-8-(pyrimidin-5-yl)isoquinolin-1(2H)-one], the results for the IC50 at PI3Kγ (p120γ)(h) and at PI3Kδ (p110δ/p85α)(h) were over 1000 nM and 17 nM, respectively.

As to `Cc1ncc(-c2cccc3cc([C@@H](Nc4ncnc5cccc(F)c45)C(C)C)n(-c4ccccc4)c(=O)c23)cn1` [Example 47, (S)-3-(1-((5-fluoroquinazolin-4-yl)amino)-2-methylpropyl)-8-(2-methylpyrimidin-5-yl)-2-phenylisoquinolin-1(2H)-one], the half-maximal inhibitory concentration (IC50) against PI3Kγ (p120γ)(h) is over 1000 nM; at PI3Kδ (p110δ/p85α)(h), 23 nM.

The values are drawn from patent US10941136B2, “Quinazoline derivative or its salt and pharmaceutical composition comprising the same” (YUHAN CORPORATION, priority 2016, dated 2021).
